Read-outs that look alike come from different tables or passages of the source.
Assays:
[1] = tested on: 700022-resistant line of L. mexicana (r22) axenic amastigotes; assay: EC50 in 700022-resistant L. mexicana (r22) axenic amastigotes; type: cell-based, Leishmania mexicana; conditions: for r22 8 weeks RI (resistance index, EC50 in r22/EC50 in WT): 8 weeks of 700022 selection pressure
Experimental: A 700022-resistant line of L. mexicana (r22) was generated using a previously reported method (Figure S3). […] All leishmanicidal sterols identified were assayed against r22 after 8 weeks of 700022 pressure and cross-resistance was found against all four compounds, each with a similar resistance index of between 4–5 (Figure 6c). Following 28 weeks of selection, the morphology of the r22 promastigotes was compared to that of WT (Figure 6d). […] The body area of both promastigotes and amastigotes was also assessed, noting a small (c 20%) decrease in the body area of r22 parasites compared to WT strains (Figure S3).
Figure 6 Comparison between wildtype and 700022-resistant (r22) L. mexicana cell lines. Log concentration versus normalised (compared to untreated control) growth curves for wildtype (WT) and corresponding 700022-selected (r22) L. mexicana (a) promastigotes and (b) axenic amastigotes. Error bars represent upper and lower limits of the StDev (n = 9). […] The resistance index (EC50 in r22/EC50 in WT) are shown for each compound. (d) Scanning electron micrographs of WT and r22 promastigotes illustrating the shortened flagellum in r22 parasites. (e) Analysis of flagellum length in WT and r22 promastigotes (n = 287 of each strain) reported using a box and whisker plot (boxes represents the 25–75th percent distribution with the mean as a horizontal line, whiskers represent the distribution of all values) with a statistically significant difference (Mann–Whitney U test, p-value < 2.2 × 10^−16). […] Error bars represent upper and lower limits of the StDev (n = 9). […] The resistance index (EC50 in r22/EC50 in WT) are shown for each compound. TEXT PRINTED IN THE PICTURE: (c) 700022: 4.1 | (c) 700107: 4.1 | (c) 700136: 5.3 | (c) 700240: 5.3 | (f) 700022: 42.1 | (f) Milt: 17.9 | (f) Pent: 0.75 | (f) AmpB: 1.22 DOUBTS OF THE COPYIST ABOUT THIS PICTURE: Panels c and f: the numbers printed above the bar pairs have no measure or unit printed with them in the picture.
L. mexicana parasites were grown in increasing concentrations of 700022 in a stepwise manner, as previously described. […] A dose response assay of the newly selected promastigotes was completed as stated above, with the exception of the seeding density of 1 × 10^5 cells/mL. At this point, the drug pressure was increased to the concentration of the new EC50 value.

[2] = tested on: L. donovani axenic amastigotes; assay: Concentration-response EC50, L. donovani axenic amastigotes; type: cell-based; conditions: Leishmania donovani
From the text: The four lanosterone-like sterols derived from the Noble Fir Abies procera (700022, 700107, 700136) and the Grand Fir Abies grandis (700240) were the only initial compounds taken forward for L. mexicana due to their nanomolar activity and apparent low cytotoxicity (Figure 3a). […] Understanding the impact of the ring-opened lactone head group in this compound compared to the other three warrants further analysis in exploring their structure-activity relationships. These four sterols were also tested for growth inhibitory activity against L. donovani axenic amastigotes. […] As Leishmania spp. amastigotes typically reside with macrophages, further cytotoxicity assays with these sterols were performed against an activated monocyte cell line (THP-1) (Figure 4b).

T. evansi = assay: Concentration-response EC50, T. evansi; type: cell-based; conditions: Trypanosoma evansi, 48 h, read-out: T. evansi EC50
From the text: (§1) Initial hits from the parasite panel screen were taken forward in log concentration versus normalised response assays to estimate the half maximal effective concentration (EC50) in hit species as well as the half maximal cytotoxic concentrations (CC50) in the human hepatoma cell line HepG2 as a preliminary test for selectivity. Using CC50/EC50 to define the selectivity index (SI), the selectivity for each compound in a defined species compared to a human cell line was estimated and compared to the EC50 (Figure 3).
(§2) EC50 values were determined by serial two-fold dilution of each compound in 96 well plates. Culture conditions and viability assays were as stated for the initial screen, with some exceptions. L. mexicana and L. donovani axenic amastigotes were seeded at 2 × 10^6 cell/s mL, T. brucei and T. evansi were seeded at 2 × 10^5 cells/mL. For cytotoxicity studies, HepG2 cells were seeded at 1 × 10^5 cells/mL, incubated for 48 h and viability was assessed using the Alamar Blue assay [66, 67]. […] Normalised growth and viability data (compared to untreated controls) were plotted against Log10 concentration to estimate EC50 in GraphPad (Prism v6).

P. falciparum Dd2Luc = assay: Concentration-response EC50, P. falciparum Dd2Luc; type: cell-based, Plasmodium falciparum; conditions: 48 h
From the text: as §1, §2

[3] = Leishmania mexicana, read-out: r22 8 weeks EC50, r22 after 8 weeks of 700022 selection pressure
[4] = Plasmodium falciparum, read-out: P. falciparum Dd2Luc EC50, intraerythrocytic, 48 h

Row | SMILES | r22 8 weeks RI (resistance index, EC50 in r22/EC50 in WT) [1] | EC50 [1, 3] [µM] | EC50 [2] [µM] | EC50 (T. evansi) [µM] | EC50 (P. falciparum Dd2Luc; [4]) [µM] | further results
1 | CC1=CC(O)(CC(C)C2(C)CC=C3C4=CCC5C(C)(C)C(O)CCC5(C)C4CCC32C)OC1=O (stereo not drawn) [Compound 700022] | 4.1 | 1 | 0.14 |  |  | EC50 ([1]; Leishmania mexicana, read-out: r22 28 weeks EC50, r22 after 28 weeks of 700022 selection pressure): 10.1 µM; EC50 ([1]; read-out: r22 28 weeks EC50, r22 after 28 weeks of 700022 selection pressure): 10 µM
2 | CC1OC(OC2C(OC(=O)C3CC[C@@H]4[C@H](C3)OC3(CC(OC(=O)/C=C/c5ccccc5)[C@@H](C)CO3)C43CO3)OC(CO)C(O)C2O)C(O)C(O)C1O (stereo partly drawn) [Compound 700042] |  |  |  | 0.618 | 0.28 | 
3 | CC1=CC(O)(CC(C)C2(C)CCC3C4=CCC5C(C)(CCC(O)C5(C)C)C4=CCC32C)OC1=O (stereo not drawn) [Compound 700107] | 4.1 | 1.1 | 0.26 |  |  | 
4 | CC1=CC(O)(CC(C)C2(C)CC=C3C4=CCC5C(C)(C)C(=O)CCC5(C)C4CCC32C)OC1=O (stereo not drawn) [Compound 700136] | 5.3 | 1.1 | 0.16 |  |  | 
5 | C/C(=C/C(=O)CC(C)C1CCC2(C)C3=CCC4C(C)(C)C(=O)CCC4(C)C3CCC12C)C(=O)O (stereo not drawn) [Compound 700240] | 5.3 | 2.7 | 0.34 |  |  | 
6 | C=C1C(=O)OC2CC(C)C3C=CC(=O)C3(C)C(OC(C)=O)C12 (stereo not drawn) [Compound 701155] |  |  |  | 0.135 | 1.6 | 
7 | C=C1C(=O)OC2CC(C)C3C=CC(=O)C3(C)C(OC(=O)C(C)C)C12 (stereo not drawn) [Compound 701157] |  |  |  | 0.191 | 1.8 | 
8 | C=C1C(=O)OC2CC(C)C3C=CC(=O)C3(C)C(OC(=O)C(C)CC)C12 (stereo not drawn) [Compound 701158] |  |  |  | 0.244 | ~1 | EC50 (P. falciparum Dd2Luc; read-out: P. falciparum Dd2Luc EC50, intraerythrocytic): 1.6 µM
9 | C=C1C(=O)OC2CC(C)C3C(OC)CC(=O)C3(C)C(OC(=O)C(C)CC)C12 (stereo not drawn) [Compound 701159] |  |  |  |  | 4.5 | 
